Test [1] concerns the target Cyclin-dependent kinase 2 (Homo sapiens, UniProt P24941). Description: Inhibitory activity against Cyclin-dependent kinase 2.
In test [2] the target is Platelet-derived growth factor receptor beta (Homo sapiens, UniProt P09619). The test can be described thus: Inhibitory activity was tested against Platelet-derived growth factor receptor beta.
The target of test [3] is Vascular endothelial growth factor receptor 2 (Homo sapiens, UniProt P35968). The test can be described thus: Inhibitory activity was tested against FLK kinase.
Vascular endothelial growth factor receptor 2, sequence (P35968 whole entry): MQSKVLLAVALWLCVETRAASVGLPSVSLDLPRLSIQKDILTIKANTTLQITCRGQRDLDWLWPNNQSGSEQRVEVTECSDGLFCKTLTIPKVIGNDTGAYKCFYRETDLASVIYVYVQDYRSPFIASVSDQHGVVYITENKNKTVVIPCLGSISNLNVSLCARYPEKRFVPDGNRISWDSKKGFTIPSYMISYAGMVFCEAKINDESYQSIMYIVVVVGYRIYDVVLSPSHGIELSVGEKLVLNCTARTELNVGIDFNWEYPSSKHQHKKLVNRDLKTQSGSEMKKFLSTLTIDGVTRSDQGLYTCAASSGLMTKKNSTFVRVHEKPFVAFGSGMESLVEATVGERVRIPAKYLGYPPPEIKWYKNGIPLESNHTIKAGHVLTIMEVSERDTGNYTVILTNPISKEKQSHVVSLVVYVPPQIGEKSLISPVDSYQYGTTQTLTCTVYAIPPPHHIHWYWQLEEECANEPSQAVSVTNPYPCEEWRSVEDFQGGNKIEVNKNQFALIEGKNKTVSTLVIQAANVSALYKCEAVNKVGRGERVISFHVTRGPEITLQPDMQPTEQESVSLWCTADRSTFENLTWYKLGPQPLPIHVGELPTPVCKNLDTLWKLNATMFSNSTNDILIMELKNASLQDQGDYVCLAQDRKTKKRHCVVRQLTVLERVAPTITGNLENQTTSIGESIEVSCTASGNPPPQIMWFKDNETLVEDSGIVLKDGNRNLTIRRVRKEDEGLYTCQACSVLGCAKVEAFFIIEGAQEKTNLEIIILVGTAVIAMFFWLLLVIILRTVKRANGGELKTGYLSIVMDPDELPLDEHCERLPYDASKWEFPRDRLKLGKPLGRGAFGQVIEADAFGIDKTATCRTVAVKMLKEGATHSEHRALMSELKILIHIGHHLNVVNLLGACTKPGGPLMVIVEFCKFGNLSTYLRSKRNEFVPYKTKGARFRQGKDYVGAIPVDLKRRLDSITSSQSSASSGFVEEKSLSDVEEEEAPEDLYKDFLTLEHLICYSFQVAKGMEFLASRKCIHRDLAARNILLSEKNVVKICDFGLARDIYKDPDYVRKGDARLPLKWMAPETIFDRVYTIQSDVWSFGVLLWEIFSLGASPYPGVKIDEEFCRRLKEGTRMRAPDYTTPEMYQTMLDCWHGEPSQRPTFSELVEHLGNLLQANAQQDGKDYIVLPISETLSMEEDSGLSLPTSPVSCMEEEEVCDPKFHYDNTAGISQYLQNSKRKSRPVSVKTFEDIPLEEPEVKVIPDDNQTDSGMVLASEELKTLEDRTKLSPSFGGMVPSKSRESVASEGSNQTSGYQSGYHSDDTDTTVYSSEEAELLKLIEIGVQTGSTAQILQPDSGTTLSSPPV
Test [4] addresses Proto-oncogene tyrosine-protein kinase Src (Homo sapiens, UniProt P12931). Description: Inhibitory activity was tested against Src protein tyrosine kinase.

The IC50 is the concentration needed to halve the response being measured. Read a low IC50 as greater potency in that assay.

Platelet-derived growth factor receptor beta, sequence (P09619 whole entry): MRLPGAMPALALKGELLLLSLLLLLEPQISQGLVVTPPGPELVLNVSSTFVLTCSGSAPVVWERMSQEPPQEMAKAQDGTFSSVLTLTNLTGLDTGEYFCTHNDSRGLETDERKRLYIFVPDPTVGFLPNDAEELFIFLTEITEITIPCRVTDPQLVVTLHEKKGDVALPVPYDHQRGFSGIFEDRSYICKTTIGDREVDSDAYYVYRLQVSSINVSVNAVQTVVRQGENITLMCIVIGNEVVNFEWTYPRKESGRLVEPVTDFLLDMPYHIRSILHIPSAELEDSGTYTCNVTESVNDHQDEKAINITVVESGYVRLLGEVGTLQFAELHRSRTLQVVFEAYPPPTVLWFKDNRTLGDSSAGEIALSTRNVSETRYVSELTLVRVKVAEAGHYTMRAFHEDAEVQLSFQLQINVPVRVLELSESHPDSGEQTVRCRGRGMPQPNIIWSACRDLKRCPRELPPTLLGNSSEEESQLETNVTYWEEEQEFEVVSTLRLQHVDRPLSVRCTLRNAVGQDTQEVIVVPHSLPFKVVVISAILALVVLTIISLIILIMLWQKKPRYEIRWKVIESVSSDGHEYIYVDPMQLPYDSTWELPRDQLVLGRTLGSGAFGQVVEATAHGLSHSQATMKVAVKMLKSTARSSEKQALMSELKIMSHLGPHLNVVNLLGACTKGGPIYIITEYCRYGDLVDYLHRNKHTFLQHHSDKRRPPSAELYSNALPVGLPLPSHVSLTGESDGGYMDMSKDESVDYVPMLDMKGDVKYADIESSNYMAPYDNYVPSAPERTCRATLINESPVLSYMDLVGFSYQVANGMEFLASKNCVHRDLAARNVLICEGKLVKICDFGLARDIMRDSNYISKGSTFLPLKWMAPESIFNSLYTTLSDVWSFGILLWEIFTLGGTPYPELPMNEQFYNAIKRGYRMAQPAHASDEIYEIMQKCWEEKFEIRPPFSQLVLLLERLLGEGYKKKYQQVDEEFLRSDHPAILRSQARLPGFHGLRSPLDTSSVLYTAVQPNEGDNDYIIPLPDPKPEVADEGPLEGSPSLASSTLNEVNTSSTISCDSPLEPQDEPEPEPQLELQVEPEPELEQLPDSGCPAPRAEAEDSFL
Proto-oncogene tyrosine-protein kinase Src, sequence (P12931 2-536 limits assumed): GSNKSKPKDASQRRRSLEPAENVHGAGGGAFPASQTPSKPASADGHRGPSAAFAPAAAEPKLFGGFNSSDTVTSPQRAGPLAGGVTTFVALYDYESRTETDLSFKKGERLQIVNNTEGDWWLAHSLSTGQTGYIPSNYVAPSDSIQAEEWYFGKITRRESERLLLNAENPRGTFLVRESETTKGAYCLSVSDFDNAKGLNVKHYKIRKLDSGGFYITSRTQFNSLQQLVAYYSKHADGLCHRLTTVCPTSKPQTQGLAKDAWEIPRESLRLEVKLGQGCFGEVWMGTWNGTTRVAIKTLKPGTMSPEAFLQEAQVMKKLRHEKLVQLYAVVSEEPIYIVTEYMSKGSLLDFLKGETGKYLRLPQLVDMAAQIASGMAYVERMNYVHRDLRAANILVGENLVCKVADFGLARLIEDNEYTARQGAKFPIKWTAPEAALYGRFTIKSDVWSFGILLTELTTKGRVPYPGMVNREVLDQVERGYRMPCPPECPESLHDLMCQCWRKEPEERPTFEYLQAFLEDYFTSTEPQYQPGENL

In the case of `O=C1Nc2ccc(Br)cc2/C1=C/c1[nH]cc2c1CCOC2=O`, the IC50 in test [1] is 0.19 µM; in test [2], 18 µM; in test [3], 11 µM; in test [4], > 20 µM.

On to `O=C1Nc2ccc(C(=O)O)cc2/C1=C/c1[nH]cc2c1CCOC2=O`, for which the IC50 is 0.004 µM in test [1], > 20 µM in test [2], 6.2 µM in test [3] and > 20 µM in test [4].

On to `O=C1Nc2ccc(F)cc2/C1=C/c1[nH]cc2c1CCNC2=O`, for which the IC50 in test [1] was found to be 0.3 µM.

The molecule `CNS(=O)(=O)c1ccc2c(c1)/C(=C/c1[nH]cc3c1CCNC3=O)C(=O)N2` registered an IC50 in test [1] of 0.009 µM.

In the case of `CC(C)NS(=O)(=O)c1ccc2c(c1)/C(=C/c1[nH]cc3c1CCOC3=O)C(=O)N2`, the IC50 in test [1] was 0.064 µM; in test [2], > 20 µM; in test [3], 6.7 µM; in test [4], > 20 µM.

For `COc1ccc2c(c1)/C(=C/c1[nH]cc3c1CCOC3=O)C(=O)N2`, the IC50 was 0.04 µM in test [1], > 20 µM in test [2], > 20 µM in test [3] and > 20 µM in test [4].

In the case of `O=C1Nc2ccc(Cl)cc2/C1=C/c1[nH]cc2c1CCOC2=O`, the half-maximal inhibitory concentration (IC50) in test [1] is 0.088 µM; in test [2], 2.1 µM; in test [3] it was > 20 µM; in test [4] it was > 20 µM.

`COc1ccc2c(c1)/C(=C/c1[nH]cc3c1CCNC3=O)C(=O)N2`: in test [1], the IC50 was 0.25 µM.

Take `O=C1Nc2cc(-c3ccccc3)ccc2/C1=C/c1[nH]cc2c1CCOC2=O`: the half-inhibitory concentration (IC50) in test [1] was > 10 µM; in test [2], 1.1 µM; in test [3] it was 2 µM; in test [4], 8.4 µM.

In the case of `NS(=O)(=O)c1ccc2c(c1)/C(=C/c1[nH]cc3c1CCOC3=O)C(=O)N2`, the IC50 in test [1] was 0.012 µM; in test [2], > 20 µM; in test [3] it was 6.6 µM; in test [4], 13 µM.

`O=C1Nc2cccc(CCO)c2/C1=C/c1[nH]cc2c1CCNC2=O`: half-maximal inhibition in test [1] (IC50) was put at 0.34 µM.

`CN(C)S(=O)(=O)c1ccc2c(c1)/C(=C/c1[nH]cc3c1CCOC3=O)C(=O)N2`: the IC50 is 0.033 µM in test [1], > 20 µM in test [2], > 20 µM in test [3] and > 20 µM in test [4].

In the case of `O=C1Nc2cc(-c3ccccc3)ccc2/C1=C/c1[nH]cc2c1CCNC2=O`, in test [1], half-maximal inhibition (IC50) required 5.7 µM.

On to `Cc1cccc2c1/C(=C/c1[nH]cc3c1CCOC3=O)C(=O)N2`, for which the IC50 in test [1] was 0.27 µM; in test [2] it was > 20 µM; in test [3], > 20 µM; in test [4], > 20 µM.

In test [1], `O=C1Nc2ccc(Br)cc2/C1=C/c1[nH]cc2c1CCNC2=O` yielded an IC50 of 0.53 µM.

In the case of `CN(C)S(=O)(=O)c1ccc2c(c1)/C(=C/c1[nH]cc3c1CCNC3=O)C(=O)N2`, the half-maximal inhibitory concentration (IC50) in test [1] is 0.068 µM.

On to `O=C1Nc2cccc(C3CCNCC3)c2/C1=C/c1[nH]cc2c1CCOC2=O`, for which the IC50 in test [1] was 0.009 µM; in test [2] it was 1.1 µM; in test [3], 0.49 µM; in test [4], 1.1 µM.

Turning to `O=C1Nc2cccc(C3CCNCC3)c2/C1=C/c1[nH]cc2c1CCNC2=O`, the midpoint of inhibition in test [1], the IC50, lay at 0.049 µM.

Consider `O=C1Nc2cccc(CCO)c2/C1=C/c1[nH]cc2c1CCOC2=O`, for which the IC50 in test [1] was 0.03 µM; in test [2] it was > 20 µM; in test [3], 1.2 µM; in test [4], > 20 µM.

`COc1ccc2c(c1)NC(=O)/C2=C\c1[nH]cc2c1CCOC2=O`: the IC50 in test [1] was 1.5 µM; in test [2] it was 1.4 µM; in test [3] it was > 20 µM; in test [4], > 20 µM.

For the molecule `O=C1Nc2ccc(F)cc2/C1=C/c1[nH]cc2c1CCOC2=O`, the IC50 in test [1] is 0.082 µM; in test [2], > 20 µM; in test [3], 10 µM; in test [4] it was > 20 µM.

In the case of `CNS(=O)(=O)c1ccc2c(c1)/C(=C/c1[nH]cc3c1CCOC3=O)C(=O)N2`, the IC50 in test [1] was 0.004 µM; in test [2] it was > 20 µM; in test [3] it was 6.6 µM; in test [4] it was > 20 µM.

As for `O=C1Nc2ccc(C(=O)O)cc2/C1=C/c1[nH]cc2c1CCNC2=O`, in test [1], 0.068 µM corresponded to half-maximal inhibition (IC50).

Values taken from ChEMBL document CHEMBL1136528, “Novel pyrrolyllactone and pyrrolyllactam indolinones as potent cyclin-dependent kinase 2 inhibitors” (Bioorg Med Chem Lett, 2003).
